Tests used:
S. hominis = experiment: MIC by micro-dilution (BSAC); type: cell-based
[1] = test system: clinical biofilm forming strains of CNS Staphylococci species associated with prosthetic joint infections; experiment: passaging in sub-inhibitory concentrations; type: cell-based; settings: for MIC after passaging: sub-inhibitory concentrations
S. epidermidis 156 = experiment: viability, optical density and Gram staining after addition of peptide; type: cell-based
S. saprophyticus = experiment: MIC by micro-dilution (BSAC); type: cell-based
[2] = enzyme stability of the peptide (activity in AU/ml after enzyme treatment)
pH stability = type: physicochemical
MRSA (EMRSA 15) = experiment: MIC by micro-dilution (BSAC); type: cell-based;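 also: MIC in µg/ml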
[3] = test system: reference strain RP62a, gentamicin resistant clinical isolate 53 and gentamicin sensitive isolate 156; experiment: single-step (spontaneous) mutation tests; type: cell-based, S. epidermidis; settings: two, four and eight times the MIC; strains RP62a, 53 and 156; no evidence of mutation
Listeria monocytogenes = experiment: MIC by micro-dilution (BSAC); type: cell-based
S. epidermidis s42 [4] = experiment: membrane potential, DiSC3(5) assay; type: cell-based; settings: all concentrations assessed; levels exceeded positive control nisin 10×MIC
From the text: (§1) Results are expressed as % of positive control and that NI01 causes concentration dependent release of potassium from indicator cells with 100% being released at the highest concentration of NI01 assessed (10×MIC).
In summary, mode of action studies, using DiSC3(5) [3,3′-Dipropylthiadicarbocyanine iodide] assays, indicate that NI01 depolarises the membrane (FIG. 12) of the a Staphylococcus epidermidis strain resulting in loss of potassium (FIG. 13) and ATP (FIG. 14).

Enterococcus faecalis = experiment: MIC by micro-dilution (BSAC); type: cell-based
S. warneri = experiment: MIC by micro-dilution (BSAC); type: cell-based
Bacillus cereus = experiment: MIC by micro-dilution (BSAC); type: cell-based
S. epidermidis s42 [5] = experiment: ATP release; type: cell-based; settings: 10×MIC
strain 156 biofilm = experiment: biofilm formation on peptide-coated polyethylene beads; type: cell-based, Staphylococcus epidermidis; settings: beads submerged in semi-pure peptide 2 hours, inoculum 3×10^8 cfu/ml of strain 156, p=0.000
S. aureus 1195 = experiment: MIC by micro-dilution (BSAC); type: cell-based
Propionibacterium acnes = experiment: spot on lawn method; type: cell-based; settings: purified preparations of NI01, spot on lawn method
S. epidermidis = experiment: MIC by micro-dilution (BSAC); type: cell-based;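 also: MIC in µg/ml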
S. epidermidis s42 [6] = experiment: potassium release, K+ sensitive fluorescent dye PBFI; type: cell-based; settings: highest concentration, 10×MIC
From the text: as §1

Streptococcus mutans = experiment: MIC by micro-dilution (BSAC); type: cell-based;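 also: MIC in µg/ml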
[7] = test system: Staphylococcal isolates associated with joint or tissue infections; experiment: deferred antagonism method, inhibition of clinical Staphylococcal isolates; type: cell-based, Staphylococci; set-up: key to Inhibition caused by NI01: NI indicates no inhibition; 1+: on a score of 1-3; 2+: on a score of 1-3; 3+: on a score of 1-3
[8] = test system: Vancomycin resistant Enterococcus faecalis; experiment: MIC by micro-dilution (BSAC); type: cell-based
Bacillus subtillis = experiment: MIC by micro-dilution (BSAC); type: cell-based
[9] = Strain 11, gentamicin and methicillin resistant clinical isolate
[10] = Strain 12, gentamicin resistant clinical isolate
[11] = following treatment with protease

Substance: peptide NI01: antimicrobial peptide (bacteriocin, SEQ ID NO:3) obtained from a Staphylococcal culture; C terminal sequence QSFEWIYKQIKKLWA (MAAFMKLIQFLATKGQKYVSLAWKHKGTILKWINAGQSFEWIYKQIKKLWA; NOI01 polypeptide)
- MIC (S. hominis): 1 µg/mL
- MIC before passaging [1, 9]: 7800 µg/mL
- MIC after passaging [1, 9]: 15600 µg/mL
- MIC before passaging [1, 10]: 3900 µg/mL
- MIC after passaging [1, 10]: 7800 µg/mL
- change in MIC after passaging ([1]; all of the other strains tested (of twelve)): no change
- stained cells per field of view (Gram stain) following addition of peptide (S. epidermidis 156; at least 150 small cocci per field prior to addition): less than 20 cells per field of view
- type of activity against the target bacterium (S. epidermidis 156; from cfu count and optical density): bactericidal, but non-lytic
- cfu count after addition of peptide (S. epidermidis 156; peptide added at T=30, decrease not as pronounced in optical density): rapid decrease
- MIC (S. saprophyticus): 0.5 to 1 µg/mL
- activity after treatment [2, 11]: 160 AU/ml
- reduction in activity [2, 11]: 75%
- activity before enzyme treatment ([2]; partially purified peptide, starting activity): 640 AU/ml
- activity after treatment ([2]; treatment with trypsin): 320 AU/ml
- reduction of activity ([2]; treatment with trypsin): 50%
- activity lost (pH stability; acidic pH 2): about 5%
- activity lost (pH stability; alkaline pH 10): 12%
- activity retained (pH stability; between pH 4-8): 100%
- MIC (MRSA (EMRSA 15); MRSA s37 (EMRSA 15)): 1 to 2 µg/mL
- MIC (MRSA (EMRSA 15); MRSA s41 (EMRSA 15)): 1 to 2 µg/mL
- MIC (MRSA (EMRSA 15); MRSA s71 (EMRSA 15)): 2 µg/mL
- mutation (single-step mutation tests) [3]: < 1.5×10^8 cfu/ml
- MIC (Listeria monocytogenes): <0.125 µg/mL
- effect on membrane potential (S. epidermidis s42 [4]): rapidly depolarized the membrane
- cells that looked apoptotic (vero cells): 10-20%
- damage to vero cells (vero cells): No significant damage
- MIC (Enterococcus faecalis): 1 µg/mL
- MIC (S. warneri): 1 µg/mL
- MIC (Bacillus cereus): <0.125 µg/mL
- ATP released (S. epidermidis s42 [5]): > 65 % of positive control
- reduction of biofilm on coated versus uncoated polyethylene beads (strain 156 biofilm): 2.85 log units
- MIC (S. aureus 1195): 2 µg/mL
- activity against Propionibacterium acnes (Propionibacterium acnes): activity
- MIC (S. epidermidis; S. epidermidis RP62a): 2 to 4 µg/mL
- MIC (S. epidermidis; S. epidermidis s1): 1 µg/mL
- MIC (S. epidermidis; S. epidermidis s2): 4 µg/mL
- MIC (S. epidermidis; S. epidermidis s37): 2 µg/mL
- MIC (S. epidermidis; S. epidermidis s42): 2 µg/mL
- MIC (S. epidermidis; S. epidermidis s44): 4 µg/mL
- MIC (S. epidermidis; S. epidermidis s60): 2 µg/mL
- MIC (S. epidermidis; S. epidermidis s93): 2 µg/mL
- MIC (S. epidermidis; S. epidermidis s156): 0.0625 µg/mL
- potassium release (S. epidermidis s42 [6]): 100 % of positive control
- MIC (Streptococcus mutans; Streptococcus mutans 263): 2 µg/mL
- MIC (Streptococcus mutans; Streptococcus mutans 313): 0.12 µg/mL
- haemolysis (haemolysis): not haemolytic
- Inhibition caused by NI01 ([7]; isolate 5133, Tissue (acetabulum), resistance: flu): 2+
- Inhibition caused by NI01 ([7]; isolate S1, Tissue, resistance: meth, pen, ery, amp, flu, gen, trim, cip): 2+
- Inhibition caused by NI01 ([7]; isolate S2, Joint fluid, resistance: pen, ery, amp, flu, gen, trim, cip): 2+
- Inhibition caused by NI01 ([7]; isolate S4, Tissue, resistance: meth, flu, gen, trim): 3+
- Inhibition caused by NI01 ([7]; isolate S5, Tissue, resistance: met): 3+
- Inhibition caused by NI01 ([7]; isolate S6, Femoral canal, resistance: flu, ery, gen, rif, cip): 1+
- Inhibition caused by NI01 ([7]; isolate S7, Femoral canal, sensitive): 1+
- Inhibition caused by NI01 ([7]; isolate S8, Tissue, resistance: flu, ery, gen, rif, cip): 1+
- Inhibition caused by NI01 ([7]; isolate S9, Tissue, resistance: flu, ery, gen, rif, cip): 3+
- Inhibition caused by NI01 ([7]; isolate S10, Tissue, resistance: flu, ery, gen, rif, cip): 1+
- Inhibition caused by NI01 ([7]; isolate S11, Tissue, resistance: flu, ery, gen, rif, cip): 2+
- Inhibition caused by NI01 ([7]; isolate S12, Tissue, resistance: flu, ery, rif, cip): 1+
- Inhibition caused by NI01 ([7]; isolate S13, Swab, resistance: flu, ery, gen, rif, cip): 1+
- Inhibition caused by NI01 ([7]; isolate S25, Swab (left hip joint), resistance: meth, gen): 2+
- Inhibition caused by NI01 ([7]; isolate S28, Tissue (femoral canal), resistance: meth, gen): 3+
- Inhibition caused by NI01 ([7]; isolate S30, Tissue (left capsule), resistance: meth): 3+
- Inhibition caused by NI01 ([7]; isolate S31, Swab (joint), sensitive): 2+
- Inhibition caused by NI01 ([7]; isolate S37, Tissue (knee), sensitive): 2+
- Inhibition caused by NI01 ([7]; isolate S39, Tissue (right knee), resistance: meth, flu, fus, cip): 1+
- Inhibition caused by NI01 ([7]; isolate S40, Tissue (right knee), resistance: meth, flu, ery, fus, clin, cip): 1+
- Inhibition caused by NI01 ([7]; isolate S41, Tissue (femoral canal), resistance: meth, flu, fus, cip): 1+
- Inhibition caused by NI01 ([7]; isolate S42, Tissue (right knee), resistance: meth, flu, fus, cip): NI
- Inhibition caused by NI01 ([7]; isolate S43, Swab (right hip joint), resistance: meth, flu, ery, fus, clin, cip): NI
- Inhibition caused by NI01 ([7]; isolate S44, Swab (right hip joint), resistance: meth, flu, ery): NI
- Inhibition caused by NI01 ([7]; isolate S46, Swab (right hip joint), resistance: meth, flu, gen, fus, cip): NI
- Inhibition caused by NI01 ([7]; isolate S47, Swab (tibia), resistance: meth, flu, ery, gen, fus, cip): NI
- Inhibition caused by NI01 ([7]; isolate S48, Tissue (left knee), resistance: meth, flu, ery, gen, fus, cip): 1+
- Inhibition caused by NI01 ([7]; isolate S49, Tissue (left knee), resistance: meth, flu, ery, gen, fus, cip): 2+
- Inhibition caused by NI01 ([7]; isolate S52, Tissue (right hip joint), resistance: gen, cip): 2+
- Inhibition caused by NI01 ([7]; isolate S53, Swab (femur), resistance: gen, cip, fus): 2+
- Inhibition caused by NI01 ([7]; isolate S56, Tissue (right hip joint), sensitive): 2+
- Inhibition caused by NI01 ([7]; isolate S60, Tissue (femur), resistance: gen, trim): NI
- Inhibition caused by NI01 ([7]; isolate S71, Swab (femur), resistance: flu): 2+
- Inhibition caused by NI01 ([7]; isolate S78, Tissue (right elbow), resistance: flu, ery): 1+
- Inhibition caused by NI01 ([7]; isolate S79, Pus (right elbow), resistance: meth, flu, ery): 1+
- Inhibition caused by NI01 ([7]; isolate S80, Tissue (triceps), resistance: flu, ery): 1+
- Inhibition caused by NI01 ([7]; isolate S81, Pus (right elbow), resistance: flu, ery): 1+
- Inhibition caused by NI01 ([7]; isolate S82, Tissue (right elbow), resistance: flu, ery): 1+
- Inhibition caused by NI01 ([7]; isolate S83, Tissue (next to bone), resistance: flu, ery): 1+
- Inhibition caused by NI01 ([7]; isolate S85, Tissue (left elbow), resistance: meth, ery): 1+
- Inhibition caused by NI01 ([7]; isolate S86, Swab (right elbow), sensitive): 2+
- Inhibition caused by NI01 ([7]; isolate S88, Swab (left hip), sensitive): 1+
- Inhibition caused by NI01 ([7]; isolate S89, Tissue (right elbow), resistance: meth, flu, ery): 1+
- Inhibition caused by NI01 ([7]; isolate S90, Ulcer, resistance: flu, ery): 2+
- Inhibition caused by NI01 ([7]; isolate S91, Swab (right acetabulum), resistance: flu): 2+
- Inhibition caused by NI01 ([7]; isolate S92, Swab (femur), resistance: flu): 1+
- Inhibition caused by NI01 ([7]; isolate S93, Tissue (wound), resistance: flu, ery, gen, fus): NI
- Inhibition caused by NI01 ([7]; isolate S94, Tissue (right femur), resistance: flu): 3+
- Inhibition caused by NI01 ([7]; isolate S95, Tissue (right femur), resistance: flu, trim): 3+
- Inhibition caused by NI01 ([7]; isolate S96, Tissue (right femur), resistance: flu): 1+
- Inhibition caused by NI01 ([7]; isolate S97, Tissue (acetabulum), resistance: flu): 3+
- Inhibition caused by NI01 ([7]; isolate S106, Neck of femur, resistance: ery, fus): 3+
- Inhibition caused by NI01 ([7]; isolate S127, Tissue (screw holes), resistance: flu): 1+
- Inhibition caused by NI01 ([7]; isolate S128, Tissue (under plate), resistance: meth, flu): 1+
- Inhibition caused by NI01 ([7]; isolate S156, Tissue (acetabulum), resistance: ery, fus): 3+
- Inhibition caused by NI01 ([7]; isolate S159, Swab (right thigh), resistance: meth, flu, ery): 1+
- Inhibition caused by NI01 ([7]; isolate S160, Swab (right hip), resistance: meth, flu, gen): 2+
- Inhibition caused by NI01 ([7]; isolate S161, Swab (right hip sinus), resistance: flu, ery, gen, fus, cip): 2+
- Inhibition caused by NI01 ([7]; isolate S163, Tissue (right hip), resistance: flu, ery, gen, fus, cip): 1+
- Inhibition caused by NI01 ([7]; isolate S164, Tissue (right hip), resistance: ery, fus, amp, clin): NI
- inhibitory effect, score ([7]; isolate Staphylococcus epidermis 156, biofilm forming, from infected acetabulum tissue, over a 100 hour period (FIG. 5)): +3
- clinical biofilm forming isolates of Staphylococci inhibited ([7]; isolates associated with joint and/or tissue infections, summary of Table 1): 58 out of the 60
- clinical biofilm forming isolates of Staphylococci inhibited, percent ([7]; summary of Table 1): 91%
- MIC ([8]; Vancomycin resistant Enterococcus faecalis 1): 1 µg/mL
- MIC ([8]; Vancomycin resistant Enterococcus faecalis 2): 1 µg/mL
- MIC ([8]; Vancomycin resistant Enterococcus faecalis 3): 1 µg/mL
- MIC ([8]; Vancomycin resistant Enterococcus faecalis 4): 1 to 2 µg/mL
- MIC ([8]; Vancomycin resistant Enterococcus faecalis 5): 0.5 to 1 µg/mL
- MIC ([8]; Vancomycin resistant Enterococcus faecalis 6): 0.5 µg/mL
- MIC (Bacillus subtillis): <0.125 µg/mL

— US9428551B2, “Antimicrobial peptides” (priority 2009, dated 2016)
